From patent US20260102377A1, “COMPOSITIONS AND METHODS FOR TREATING MYASTHENIA GRAVIS” (priority 2022, published 2026) come the findings set out here.

The subject of one data set is healthy subjects. The data set can be described thus: Phase I clinical trial Part A: tolerability/safety of single doses.
Data set [1] has as its system muscle fibres from EAMG rats. The data set can be described thus: Endplate potentials (EPP) in isolated nerve-muscle preparations. Format: cell-based, rat. The note with it: 20 μM NMD670.
From the text: To allow for measurements of electrophysiological properties at the cellular level and for measurements of force, it was necessary to isolate nerve-muscle preparations from the rats. To this end, animals were sacrificed, and muscles were dissected out with 1 to 3 cm of intact nerve. The nerve-muscle preparations were then transferred to the organ baths used for the particular experiments (see below) and perfused with Normal Krebs-Ringer (NKR) solution, consisting of (in mM); 122 NaCl, 25 NaHCO3, 2.8 KCl, 1.2 KH2PO4, 1.2 MgSO4 1.27 CaCl2 and 5 D-glucose. This NKR solution was continuously gassed with a mixture of 95% oxygen and 5% CO2, to maintain a pH of approx. 7.4. In some experiments methyl-sulphate was used to replace Cl^− in the solution. All chemicals used were of analytical grade.
The effect of CIC-1 inhibition on neuromuscular transmission was investigated at the cellular level by recording endplate potentials (EPPs) with intracellular electrodes in isolated nerve-muscle preparations from healthy and EAMG rats (score 0-2). Muscle preparations used in the experiments were diaphragm or levator longus auris (LAL) providing the advantage to dissect out 1-3 cm of intact motor nerve. After dissection, preparations were immediately mounted in a chamber perfused with NKR at a temperature of 30-31° C., pH 7.4-7.5. […]
The next data set relates to EAMG rats. The data set can be described thus: 14-day dosing in EAMG animals: rotarod test. Type of data set: in vivo, rat. How it is done:
To induce EAMG, 250 μL of emulsion of Complete Freund's Adjuvant, consisting of heat-inactivated Mycobacterium tuberculosis H37Ra in non-metabolizable oils, together with Phosphate-Buffered Saline (PBS) and 80 μg of the extracellular α-domain peptide fragment of the human nicotinic acetylcholine receptor (antigen) was injected subcutaneously in seven-week-old, anaesthetized Lewis rats. The disease-inducing antigen was supplied by the Hellenic Pasteur institute3. The emulsion was deposited at the tail base, left hindleg, and right foreleg. After injection, animals were allowed to recover and returned to their home cage maintained in ventilated racks under controlled temperature (20 to 22° C.) and humidity (˜55%) control, under a 12-h light/12-h dark cycle with food and water provided ad libitum. The animals had pathogen free status and the housing and changing system was designed to assure that the pathogen free status was preserved during the study. The EAMG rats were observed, weighed, and scored for MG symptoms weekly until symptoms of MG developed, whereafter animals were observed daily.
Sixteen (16) rats with an EAMG clinical score of 2 were allocated to the study and stratified to one of the two treatment groups (vehicle vs NMD670, 8 rats per group). Stratification was based on rotarod endurance and grip strength performance with the aim to obtain similar average starting points for the two groups. Grip strength and Rotarod performance were measured prior to treatment (day 0) and on days 1, 4, 7, 9, 11 and 14 during treatment. The treatment was administered by per oral gavage. Dosing was twice daily with 20 mg/kg NMD670 or vehicle (sterile water) for 14 days unless the rat was subjected to premature termination due to reaching humane endpoints. The dose solutions for the treatment groups were blinded. Thus, experimenters and subsequent analysis were blinded as to which group received CIC-1 inhibitor and which group received vehicle. Full analysis of data and statistics were concluded before unblinding the data. Plasma samples were obtained on days 0, 1 and 14, with muscle samples obtained on day 14 at termination.
Rotarod test was conducted on a Touchscreen Rotarod from Panlab (Model LE8305, Harward Apparatus). For testing the running performance, the rat was placed in one of 4 running lanes on the rotating rod that rats were challenged to run on. Prior to the first test on the rotarod on Day 0, the rat was allowed a 1-minute run at 4 rotations per minute (RPM), to familiarize with the apparatus. The rat was then allowed at least 5 minutes of rest before the test was conducted. To test the running performance, the rat was challenged with a protocol consisting of constantly accelerating speed from 4 to 40 RPM over 420 seconds. Test occasions consisted of 3 runs with at least 5 and no more than 15 minutes of rest between each run. Performance was quantified by the duration that the rat was able to remain on the rotating rod. Average values of the 3 runs per test occasion were used for further data processing.
A general note: Falling from the rotarod earlier than controls is read as motor impairment.

Where [2] appears, read: of a total of 70 AEs, Part A healthy subjects.

Each structure is given as a SMILES string. Entries after “also recorded” stand apart in the source; their conditions may differ.

From the text for healthy subjects: Part A1 tested single doses of NMD670 in a double-blind, randomised, placebo-controlled, partial crossover and dose-escalating design in healthy male subjects (see the WHO International Clinicals Trials Registry Platform study reference NL8692). A total of nine dose levels were investigated in three cohorts of subjects. Each cohort consisted of nine subjects, each subject had three study sessions. Each subject received escalating doses of NMD670 on two occasions and placebo on one occasion, the order will be randomized in a cross-over fashion. Each dose level was randomized in a 6:3 ratio (active vs. placebo).
Therefore, for the remaining 2 doses, a full cross-over design investigating one previously tested dose level was used. […] To determine the effect of food on the exposure of single oral doses of NMD670, dose level 5 was administered in both the fasted and fed condition. Subjects who received dose level 5 returned for a fourth visit in which they received dose level 5 (or matching placebo) in the fed condition, in the same randomization as the chosen dose level in the fasted condition.
Part A2 of the study investigated the safety, tolerability and pharmacokinetics of NMD670 in 8 healthy female subjects of non-childbearing potential, in a randomized, double-blind, placebo-controlled single dose administration of NMD670. Subjects received 800 mg NMD670. Subjects were randomized in a 6:2 ratio (active vs. placebo).
The following endpoints were determined at time points indicated in the Schedule of Assessments. • Serious adverse events (SAEs) and adverse events (AEs) were collected throughout the study at every study visit. • Concomitant medication • Clinical laboratory tests • Haematology • Chemistry • Urinalysis • Coagulation • Vital signs • Pulse Rate (bpm) • Systolic blood pressure (mmHg) • Diastolic blood pressure (mmHg) • Respiratory rate • ECG • Heart Rate (HR) (bpm), PR, QRS, QT, QTcF • 24-hour Holter recording • Hand grip dynamometry • Grip release profile; time profile from 100% maximum voluntary contraction (MVC) to 5% of the 100% MVC

Consider `C[C@H](Oc1ccc(Br)cc1-c1ccon1)C(=O)O` [NMD670, (2S)-2-[4-bromo-2-(1,2-oxazol-3-yl)phenoxy]propanoic acid], for which, in the data set with healthy subjects (1200 mg QD, mild in intensity, resolved spontaneously within a few hours), the “Healthy subjects with myotonic symptoms” value is listed as 2 healthy subjects. For the same compound, the “AE with dose relationship, reported at the highest dose levels tested” value with healthy subjects (1200 mg and 1600 mg single dose, healthy subjects) was “transient myotonia”. In the data set with healthy subjects (Part A healthy subjects), the Subject discontinuations result is reported as “no subject discontinuations”. Also, the “Total number of AEs reported” value in the data set on healthy subjects (Part A, 35 healthy subjects, single-ascending dose study) is given as 70 AEs. Further, in the data set on healthy subjects (Phase 1 clinical study, considered non-clinically significant), the Serum uric acid entry is on record as “dose-dependent decrease in serum uric acid”. Further, the “Intensity of most AEs” value in the data set on healthy subjects (Phase 1 healthy subjects) was “mild and mild in intensity”. Further, in the data set with healthy subjects (healthy subjects, based on myotonia), the Maximum tolerated dose stood at 1200 mg QD. The “AEs at least possibly drug-related (number)” value with healthy subjects (setting [2]) turned out to be 47 AEs. In addition, in the data set on healthy subjects (setting [2]), the “AEs at least possibly drug-related (proportion)” value is on record as 67%. The “Myotonia at 1600 mg (intensity)” value in the data set with healthy subjects (one healthy subject, single dose 1600 mg, spontaneously and fully resolved within hours, dose escalation stopped) is listed as “myotonia of moderate intensity; also recorded: moderate in intensity; also recorded: Myotonia of moderate severity”. Besides, the “Serious or severe adverse effects” value in the data set with healthy subjects (single doses 50-1600 mg, healthy subjects) is “No serious or severe adverse effects; also recorded: No serious adverse reactions were reported”. The “Relationship between increases in NMD670 dose and incidence of participants with AEs” value with healthy subjects (single doses, healthy subjects) was “no meaningful relationships”. Further, the “Endplate potential (EPP) in muscle fibres from EAMG rats vs healthy rats” value in data set [1] was “could be restored”. For the same compound, the “Increase of endplate potential (EPP) amplitude” value in data set [1] (EAMG rats, throughout a 12 Hz train of 30 stimulations, 82 fibres vs 68 fibres without inhibitor) is on record as “more than 35%”. Also, the “Endurance on rotarod over vehicle group throughout the period of treatment” value in the data set with EAMG rats (14-day chronic dosing, 20 mg/kg twice daily) is “higher endurance on rotarod”. Moreover, the “Rotarod performance (latency to fall in seconds)” value in the data set on EAMG rats (day 0 (prior to treatment), 20 mg/kg twice daily per oral, P = 0.9478 vs vehicle) came to 28.5 ± 7.3 s; with EAMG rats (day 1, 20 mg/kg twice daily per oral, P > 0.9999 vs vehicle), 38.4 ± 8.7 s; with EAMG rats (day 4, 20 mg/kg twice daily per oral, P = 0.4613 vs vehicle) it was 37.8 ± 10.1 s; with EAMG rats (day 7, 20 mg/kg twice daily per oral, P = 0.7852 vs vehicle), 29.1 ± 8.8 s; in the data set on EAMG rats (day 9, 20 mg/kg twice daily per oral, P = 0.6753 vs vehicle), 27.5 ± 9.1 s; in the data set on EAMG rats (day 11, 20 mg/kg twice daily per oral, P = 0.0335 vs vehicle), 35.5 ± 12.6 s. Also, the “Rotarod performance (latency to fall in seconds)” value in the data set on EAMG rats (day 14, 20 mg/kg twice daily per oral, P = 0.8122 vs vehicle) came to 19.0 ± 5.7 s.
